The IC50 is the concentration needed to halve the response being measured.

Here are results for 3 molecules from article PMC10661964 (Current Drug Metabolism, 2023).

Where two headings read alike, the source gives them in different places. Where only a bound is given, the exact number is not on record here.

What all share (assay type): in vitro ADME
One series deals with T1, CYP 1A2 (Homo sapiens, UniProt P05177).
T1 sequence (P05177 1-516): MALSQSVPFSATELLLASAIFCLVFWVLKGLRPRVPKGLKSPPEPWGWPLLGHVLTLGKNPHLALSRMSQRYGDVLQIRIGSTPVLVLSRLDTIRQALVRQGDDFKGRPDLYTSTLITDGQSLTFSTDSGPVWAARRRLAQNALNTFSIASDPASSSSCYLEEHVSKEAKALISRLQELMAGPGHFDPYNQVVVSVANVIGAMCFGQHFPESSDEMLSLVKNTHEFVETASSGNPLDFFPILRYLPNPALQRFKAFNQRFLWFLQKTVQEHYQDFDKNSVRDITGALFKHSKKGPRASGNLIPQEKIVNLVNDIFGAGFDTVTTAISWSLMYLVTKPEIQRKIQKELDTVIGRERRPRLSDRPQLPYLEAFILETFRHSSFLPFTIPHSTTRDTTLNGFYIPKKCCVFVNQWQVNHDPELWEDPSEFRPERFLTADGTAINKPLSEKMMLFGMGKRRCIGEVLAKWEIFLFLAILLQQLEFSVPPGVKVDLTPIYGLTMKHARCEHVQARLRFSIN
Put plainly: CYP inhibition with probe substrate. To be noted: probe substrate phenacetin. The source says: (§1) The inhibition of cytochrome P450 (CYP) isoforms and a range of cellular transporters (except multidrug and toxin extrusion [MATE] proteins), as well as the induction of CYP isoforms were investigated using previously described methods.

A further series concerns the target T2, CYP 2B6 (Homo sapiens, UniProt P20813).
T2 sequence (P20813 1-491): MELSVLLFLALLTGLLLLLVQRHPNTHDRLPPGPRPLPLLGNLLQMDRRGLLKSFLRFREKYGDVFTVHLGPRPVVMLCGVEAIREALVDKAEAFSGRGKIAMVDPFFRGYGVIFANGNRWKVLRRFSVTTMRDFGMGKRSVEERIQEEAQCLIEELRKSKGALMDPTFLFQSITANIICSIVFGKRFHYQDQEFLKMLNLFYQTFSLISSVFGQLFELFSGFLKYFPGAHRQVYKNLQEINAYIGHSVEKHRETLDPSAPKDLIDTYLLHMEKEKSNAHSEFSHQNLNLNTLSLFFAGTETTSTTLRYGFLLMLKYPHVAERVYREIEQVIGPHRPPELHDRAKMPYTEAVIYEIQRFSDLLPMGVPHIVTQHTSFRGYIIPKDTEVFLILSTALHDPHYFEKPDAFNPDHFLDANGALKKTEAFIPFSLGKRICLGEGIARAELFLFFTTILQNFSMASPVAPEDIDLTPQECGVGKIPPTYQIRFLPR
Briefly: CYP inhibition with probe substrate. Particulars: probe substrate bupropion.
Excerpt: as §1

For another series, the target named is CYP 2E1 (Homo sapiens, UniProt P05181). Briefly: CYP inhibition with probe substrate. To be noted: coincubation, probe substrate chlorzoxazone; read-out: Co- IC50.
Excerpt: as §1

The target in another series is T3, BCRP (Homo sapiens, UniProt Q9UNQ0).
T3 sequence (Q9UNQ0 1-655): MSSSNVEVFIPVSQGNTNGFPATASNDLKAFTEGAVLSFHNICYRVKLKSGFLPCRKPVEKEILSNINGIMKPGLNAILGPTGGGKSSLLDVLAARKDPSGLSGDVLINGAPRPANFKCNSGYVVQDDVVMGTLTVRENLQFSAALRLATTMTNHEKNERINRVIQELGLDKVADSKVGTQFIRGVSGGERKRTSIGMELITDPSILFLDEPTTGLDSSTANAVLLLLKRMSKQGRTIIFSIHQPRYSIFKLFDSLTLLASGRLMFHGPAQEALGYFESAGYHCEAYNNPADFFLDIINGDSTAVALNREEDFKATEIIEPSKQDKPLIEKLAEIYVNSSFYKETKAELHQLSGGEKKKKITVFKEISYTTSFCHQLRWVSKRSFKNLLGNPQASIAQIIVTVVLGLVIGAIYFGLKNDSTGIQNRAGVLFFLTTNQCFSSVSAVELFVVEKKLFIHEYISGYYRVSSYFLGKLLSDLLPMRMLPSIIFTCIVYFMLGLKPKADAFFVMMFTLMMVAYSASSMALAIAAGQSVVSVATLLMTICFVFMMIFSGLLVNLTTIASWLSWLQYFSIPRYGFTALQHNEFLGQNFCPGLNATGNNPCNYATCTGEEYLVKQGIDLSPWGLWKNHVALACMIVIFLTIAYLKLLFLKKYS
Put plainly: Efflux transporter inhibition.
Excerpt: as §1

The target of a further series is P-gp (Homo sapiens, UniProt P08183). Put plainly: Efflux transporter inhibition.
Excerpt: as §1

The next series has as its target T4, OATP1B1 (Homo sapiens, UniProt Q9Y6L6).
T4 sequence (Q9Y6L6 1-691): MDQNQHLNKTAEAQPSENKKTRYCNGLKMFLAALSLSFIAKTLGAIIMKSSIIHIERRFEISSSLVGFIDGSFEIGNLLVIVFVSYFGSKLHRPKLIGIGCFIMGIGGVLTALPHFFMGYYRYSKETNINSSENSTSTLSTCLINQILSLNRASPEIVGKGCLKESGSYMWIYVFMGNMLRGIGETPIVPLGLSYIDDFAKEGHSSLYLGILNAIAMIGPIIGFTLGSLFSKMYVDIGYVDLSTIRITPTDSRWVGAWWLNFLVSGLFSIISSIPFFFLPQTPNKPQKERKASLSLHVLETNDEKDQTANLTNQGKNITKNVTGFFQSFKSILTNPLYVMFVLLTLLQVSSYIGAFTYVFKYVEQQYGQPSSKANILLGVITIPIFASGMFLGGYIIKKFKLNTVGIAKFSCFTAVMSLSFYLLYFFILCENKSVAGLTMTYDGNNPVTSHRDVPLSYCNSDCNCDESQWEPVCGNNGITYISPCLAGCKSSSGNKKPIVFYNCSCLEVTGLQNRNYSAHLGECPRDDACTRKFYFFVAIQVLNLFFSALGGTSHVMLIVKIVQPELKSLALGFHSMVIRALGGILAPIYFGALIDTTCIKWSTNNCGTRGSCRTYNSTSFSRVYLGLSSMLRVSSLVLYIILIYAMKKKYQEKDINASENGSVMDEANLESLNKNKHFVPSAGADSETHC
Put plainly: Uptake transporter inhibition. To be noted: probe substrate pravastatin.
Excerpt: as §1

Setting [1] is: 30-min preincubation, read-out: Pre- IC50 (+ NADPH).
Setting [2] is: coincubation, read-out: Co- IC50.
[3] abbreviates: probe substrate digoxin, for M-4 the highest test concentration of 20 µM was not valid.

Chain of P-gp (P08183 whole entry): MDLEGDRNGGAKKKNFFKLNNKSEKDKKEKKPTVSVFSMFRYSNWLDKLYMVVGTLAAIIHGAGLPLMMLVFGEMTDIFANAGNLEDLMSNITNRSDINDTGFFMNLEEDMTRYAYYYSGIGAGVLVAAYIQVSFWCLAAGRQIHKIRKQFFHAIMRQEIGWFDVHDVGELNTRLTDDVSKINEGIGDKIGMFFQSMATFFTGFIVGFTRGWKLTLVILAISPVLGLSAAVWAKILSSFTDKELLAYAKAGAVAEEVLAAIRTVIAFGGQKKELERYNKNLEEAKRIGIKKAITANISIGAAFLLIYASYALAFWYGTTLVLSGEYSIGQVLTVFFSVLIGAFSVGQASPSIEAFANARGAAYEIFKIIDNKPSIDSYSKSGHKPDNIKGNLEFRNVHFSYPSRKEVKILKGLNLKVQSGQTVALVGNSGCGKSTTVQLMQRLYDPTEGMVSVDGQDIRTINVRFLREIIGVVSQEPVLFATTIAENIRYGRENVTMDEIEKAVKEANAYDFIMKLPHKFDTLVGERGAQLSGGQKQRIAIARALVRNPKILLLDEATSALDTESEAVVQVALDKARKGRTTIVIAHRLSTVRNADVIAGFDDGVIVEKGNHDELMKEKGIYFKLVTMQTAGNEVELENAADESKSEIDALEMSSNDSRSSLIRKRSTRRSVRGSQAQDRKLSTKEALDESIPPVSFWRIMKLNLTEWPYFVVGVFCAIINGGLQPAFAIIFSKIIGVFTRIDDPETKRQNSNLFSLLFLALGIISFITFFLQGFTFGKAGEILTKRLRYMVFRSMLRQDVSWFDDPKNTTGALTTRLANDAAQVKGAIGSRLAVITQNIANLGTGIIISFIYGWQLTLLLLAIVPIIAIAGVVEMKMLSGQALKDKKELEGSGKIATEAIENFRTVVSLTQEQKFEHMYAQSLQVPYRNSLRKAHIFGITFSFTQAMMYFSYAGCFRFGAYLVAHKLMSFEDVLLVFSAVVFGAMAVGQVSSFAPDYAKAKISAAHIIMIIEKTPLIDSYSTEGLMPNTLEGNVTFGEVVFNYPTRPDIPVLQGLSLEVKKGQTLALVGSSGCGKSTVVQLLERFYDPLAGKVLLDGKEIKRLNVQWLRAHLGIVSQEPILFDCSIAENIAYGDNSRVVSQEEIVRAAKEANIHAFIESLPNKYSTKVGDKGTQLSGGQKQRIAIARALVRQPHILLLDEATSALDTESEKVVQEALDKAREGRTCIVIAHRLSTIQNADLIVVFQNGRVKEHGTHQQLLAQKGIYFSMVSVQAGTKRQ
Chain of CYP 2E1 (P05181 whole entry): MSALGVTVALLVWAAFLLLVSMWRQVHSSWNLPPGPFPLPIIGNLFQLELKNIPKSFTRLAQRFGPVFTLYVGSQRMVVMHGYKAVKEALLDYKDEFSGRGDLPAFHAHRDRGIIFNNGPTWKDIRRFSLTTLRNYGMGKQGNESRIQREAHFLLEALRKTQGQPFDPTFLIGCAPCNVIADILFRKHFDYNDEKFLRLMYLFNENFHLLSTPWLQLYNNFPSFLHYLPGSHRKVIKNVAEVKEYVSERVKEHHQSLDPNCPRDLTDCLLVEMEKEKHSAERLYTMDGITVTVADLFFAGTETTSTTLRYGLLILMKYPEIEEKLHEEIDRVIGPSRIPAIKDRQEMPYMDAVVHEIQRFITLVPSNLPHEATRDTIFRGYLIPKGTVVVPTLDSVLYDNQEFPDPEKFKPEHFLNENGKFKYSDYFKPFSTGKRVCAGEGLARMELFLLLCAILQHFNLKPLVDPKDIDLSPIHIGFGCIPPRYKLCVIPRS

Regarding `CC1CS(=O)(=O)CCN1n1cc(SCC(N)C(=O)O)ccc1=O` (centres unmarked) [M-4], the IC50 on CYP 1A2 (setting [1]), at CYP 1A2 (setting [2]), on CYP 2B6 (setting [1]), at CYP 2B6 (setting [2]), on CYP 2E1 and at BCRP (probe substrate fluvastatin) was > 20 µM throughout. Further, the IC50 against BCRP (probe substrate topotecan) was > 20 µM; on P-gp (setting [3]), > 5 µM; on P-gp (probe substrate dipyridamole), > 20 µM; against OATP1B1, > 20 µM. Moreover, the “TDI (time-dependent inhibition)” value on CYP 1A2 and at CYP 2B6 was “No” each time.
Turning to `CC1CS(=O)(=O)CCN1/N=C/c1ccc([N+](=O)[O-])o1` (centres unmarked) [Nifurtimox, (E)-N-(3-methyl-1,1-dioxo-1,4-thiazinan-4-yl)-1-(5-nitrofuran-2-yl) methanimine, reference compound], the IC50 on CYP 1A2 (setting [1]) was > 50 µM; on CYP 1A2 (setting [2]), > 50 µM; on CYP 2B6 (setting [1]), > 50 µM; at CYP 2B6 (setting [2]), > 50 µM; on CYP 2E1 it was > 50 µM; on BCRP (probe substrate topotecan), > 100 µM. The results for the IC50 at P-gp (setting [3]), on P-gp (probe substrate dipyridamole) and on OATP1B1 were > 100 µM, > 100 µM and > 50 µM, respectively. For the same molecule, the “TDI (time-dependent inhibition)” value on CYP 1A2 and at CYP 2B6 was “No” throughout.
Consider `CC1CS(=O)(=O)CCN1N` (centres unmarked) [M-6], for which the IC50 on CYP 1A2 (setting [1]) was > 100 µM; on CYP 1A2 (setting [2]), > 100 µM; on CYP 2B6 (setting [1]), > 100 µM; on CYP 2B6 (setting [2]) it was > 100 µM; on CYP 2E1, > 100 µM; against BCRP (probe substrate fluvastatin), > 200 µM. For the same molecule, the IC50 against BCRP (probe substrate topotecan) was > 200 µM; on P-gp (setting [3]) it was > 200 µM; against P-gp (probe substrate dipyridamole) it was > 200 µM; on OATP1B1, > 50 µM. Moreover, the “TDI (time-dependent inhibition)” value at CYP 1A2 and on CYP 2B6 was “No” each time.
